Data reported in patent US11180791B2, “MYO1A for predicting conversion of acute pain into chronic pain and use of MYO1A for therapy of pain” (UNIVERSITE D'AIX-MARSEILLE, priority 2016, dated 2021).
Entries after “also recorded” stand apart in the source; their conditions may differ.

Columns and labels:
WT and Myo1a KO mice [1] = assay: Spared nerve injury (SNI) neuropathic pain model, mechanical thresholds (Von Frey, up-down); assay type: in vivo; details: for reversal of SNI-induced mechanical hypersensitivity: both genotypes (WT and Myo1a KO), i.t 10 nmol SNC80, 0.2 nmol DAMGO, 0.1 μg baclofen, 2 μg TAFA4, 40 μg taurine, i.p 3 mg/kg pregabalin
Protocol: (A-D) Mechanical responses of WT and KO mice following SNI surgery and i.t administration at indicated time-points of 10 nmol of SNC80, 0.2 nmol of DAMGO (A), 0.1 μg of baclofen, 2 μg of TAFA4 (n=6 mice per genotype) (B), 40 μg of taurine, i.p administration of 3 mg/kg of pregabalin (n=8 mice per genotype) (C) and i.t administration of 0.15 μg of muscimol (n=8 mice per genotype) (D).
(§1) SNC80 (Tocris Bioscience) was dissolved in a 100 mM HCl solution, DAMGO (Sigma Aldrich) was dissolved in saline (0.9% NaCl), Baclofen (Sigma Aldrich) was dissolved in H2O (pH7.6), recombinant human TAFA4 (R&D Systems) was dissolved in saline, Diazepam (DZP, Roche) was dissolved in 10% dimethyl sulfoxide (DMSO)/90% saline, Muscimol (Tocris Bioscience), Taurine (Sigma Aldrich), Bicuculline (Sigma Aldrich) and Pregabalin (Sigma Aldrich) were dissolved in Phosphate Buffer (PB, 50 mM, pH 7.4).
(§2) Except for pregabalin, all drugs were administrated via intratechal (i.t) injection. Pregabalin was injected intra-peritoneally (i.p).
(§3) All behavioral analyses were conducted on 8-12 weeks old Myo1a KO and WT males. All experiments were carried at room temperature (˜22° C.). Animals were acclimated for one hour to their testing environment prior to all experiments. Experimenters were blind to the genotype of the mice during testing. All error bars represent SEM. All statistical analysis was carried using Two Way Repeated Measures ANOVA followed by Bonferroni's post-hoc test. Openfield, Rotarod, Hot plate and Formalin tests were carried as described in Gaillard et al., 2014 (Gaillard et al., 2014).
(§4) Mechanical thresholds of the plantar surface were determined using Von Frey's filaments with the up-down method (Chaplan et al., 1994), previously as described (Gaillard et al., 2014) prior to and at several time-points after inflammation, neuropathy and paw-incision surgery.
Spared nerve injury surgery was performed as described (Shields et al., 2003). Briefly, mice were anesthetized with a mix of ketamine/xylazine and an incision was made through the skin and thigh muscle at the level of the trifurcation of the sciatic nerve. The common sural and peroneal nerves were ligated using a 6.0 silk filament (Ethicon, Piscataway, N.J., USA) and transected, while leaving the tibial nerve intact. After surgery, the animals were allowed to recover in a warming chamber, and then they were returned to their home cages. Mechanical thresholds were determined at days 7, 9 and 14 post-surgery, before and after drug administration.

WT and Myo1a KO mice [2] = assay: Zymosan-A induced inflammatory pain model, mechanical thresholds (Von Frey, up-down); assay type: in vivo; details: for reversal of zymosan-induced mechanical hypersensitivity: i.t 0.15 μg muscimol, 0.09 mg/kg DZP
Protocol: (E-G) Mechanical responses of WT and KO mice following zymosan-induced inflammation (n=9 mice per genotype) (E) and i.t administration at indicated time-points of 0.15 μg of muscimol, 10 nmol of SNC80 (n=9 mice per genotype) (F) and 0.09 mg/kg of DZP (G) (n=7 mice per genotype). Data are presented as mean±SEM for each group (*p<0.05; **p<0.01; ***p<0.001; ns: non-significant).
as §1, §2, §3, §4
20 μl of a solution containing 1% carrageenan in H2O (weight/vol, Sigma) or 20 μl of a solution containing 0.06 mg Zymosan-A in 0.9% NaCl (weight/vol, Sigma), were injected subcutaneously into the plantar side of the left hindpaw, using a 30 G needled syringe.
For carrageenan-induced inflammation, mechanical thresholds were determined prior to inflammation and at several time-points (see legend) starting from 1 hour and up to 60 days after inflammation. For zymosan inflammation, mechanical thresholds were measured prior to injection, at day 1 and at several time-points (see legend) up day 60. In addition, mechanical thresholds in the zymosan model were measured before inflammation, at day 1 and day 2, before and after drug administration.

laminae II neurons = assay: Whole-cell patch-clamp recording of spontaneous EPSC in spinal cord slices; assay type: cell-based, mice
Protocol: (C-F) Whole cell recordings of spontaneous EPSC in laminae II interneurons after Musc application in naïve (C-D) and in zymosan-inflamed WT and KO mice (E-F).
Left panels: representative traces of EPSC obtained under ACSF (black traces), following superfusion of 5 μM Musc (blue traces) and during wash (brown traces).
Middle panels: Cumulative distribution of EPSC intervals (in seconds) for the experiments shown in the left panels. Note the shift of the Musc/blue curves towards the left (C, D, E middle panels), indicating a reversible increase in EPSC frequency.
Right panels: Normalized EPSC frequency (mean±SEM) under ACSF, following superfusion of 5 μM Musc and during wash. Note the absence of effect of Musc in slices from zymosan inflamed mice. The number of recorded cells is indicated in the right panels (*p<0.05; **p<0.01; ns: non-significant). (See also FIG. 8).
Transverse spinal cord slices with attached dorsal roots from juvenile (P24 to P45) Myo1a KO and WT mice were prepared for whole-cell recording. Briefly, the animals were anesthetized using Pentobarbital (200 mg/kg), perfused with ice cold oxygenated low calcium artificial cerebrospinal fluid (ACSF; in mM: NaCl 101; KCl 3.8; MgCl2 18.7, MgSO4 1.3; KH2PO4 1.2; HEPES 10; CaCl2 1; Glucose 1), and then beheaded. The vertebral column and surrounding muscles were quickly removed and immersed in ice cold oxygenated ACSF. Following laminectomy, the spinal cord was gently removed and its lumbar part was placed into a small 3% agarose block. Spinal slices (300 μm thick) were cut using a Leica VTS1000 vibratome, and transferred in warm (31° C.) ACSF (in mM: NaCl 130.5; KCl 2.4; CaCl2 2.4; NaHCO3 19.5; MgSO4 1.3; KH2PO4 1.2; HEPES 1.25; glucose 10; pH 7.4) equilibrated with 95%02-5% CO2 for at least one hour before starting patch clamp recordings. Spinal slices were placed in a recoding chamber bathed with warmed (31° C.) ACSF Electrophysiological measurements were performed under the control of an Olympus BX51 microscope using a multiclamp 2B (Molecular devices). Patch pipettes ([…]) were filled with C-based pipette solution (in mM: CsMethaneSulfonate 120; CsCl 20; CaCl2 0.1; MgCl2 1.3; EGTA 1; HEPES 10; GTP 0.1; cAMP 0.2; Leupeptin 0.1; Na2ATP 3; D-Manitol 77; pH 7.3). A glass suction electrode connected to a Master 8 (A.M.P. Instrument Ltd) stimulator was used to stimulate dorsal roots. Typically, a pair of high duration (500 μs) high intensity stimulations (350 μA) was used to recruit most primary afferent fibers in the recorded slice. All drugs were purchased from Sigma. Statistical comparison of EPSC frequencies was assessed for each cell using Kolmogorov-Smirnov test.

Compound	reversal of SNI-induced mechanical hypersensitivity (WT and Myo1a KO mice [1])	reversal of injury-induced mechanical hypersensitivity (conclusions summary) (WT and Myo1a KO mice [1]; Myo1a KO mice)	further results
C[C@@H](NC(=O)[C@@H](N)Cc1ccc(O)cc1)C(=O)NCC(=O)N(C)[C@@H](Cc1ccccc1)C(=O)NCCO [DAMGO]	significantly reversed		
C=CCN1C[C@H](C)N([C@H](c2ccc(C(=O)N(CC)CC)cc2)c2cccc(OC)c2)C[C@H]1C [SNC80]	significantly reversed		reversal of zymosan-induced mechanical pain (WT and Myo1a KO mice [2]; both genotypes, i.t 10 nmol SNC80): strongly reversed
NCC(CC(=O)O)c1ccc(Cl)cc1 (stereo not shown) [baclofen]	significantly reversed	transiently reversed	
CN1C(=O)CN=C(c2ccccc2)c2cc(Cl)ccc21 [diazepam]			reversal of zymosan-induced mechanical hypersensitivity (WT and Myo1a KO mice [2]; Myo1a KO mice, 0.09 mg/kg): had no effect and not; reversal of zymosan-induced mechanical hypersensitivity (WT and Myo1a KO mice [2]; Myo1a KO mice, listed as DZP, 0.09 mg/kg): totally insensitive; reversal of zymosan-induced mechanical hypersensitivity (WT and Myo1a KO mice [2]; WT mice): strongly reversed
NCc1cc(=O)[nH]o1 [muscimol]		not	reversal of SNI-induced mechanical pain (WT and Myo1a KO mice [1]; Myo1a KO mice, i.t 0.15 μg muscimol): completely failed to reverse; also recorded: totally insensitive; reversal of zymosan-induced mechanical hypersensitivity (WT and Myo1a KO mice [2]; Myo1a KO mice): had no effect; reversal of zymosan-induced mechanical hypersensitivity (WT and Myo1a KO mice [2]; WT mice): strongly reversed; sEPSC frequency (laminae II neurons; naïve WT mice, bath application of 5 μM muscimol): significant increase; increase in sEPSC frequency (laminae II neurons; naïve slices from Myo1a KO mice, 5 μM muscimol): 544%; sEPSC frequency, effect relative to naïve WT (laminae II neurons; slices from WT mice inflamed with zymosan, 5 μM muscimol): almost doubled; sEPSC frequency (laminae II neurons; slices from zymosan inflamed Myo1a KO mice, 5 μM muscimol): had no effect
CC(C)C[C@H](CN)CC(=O)O [pregabalin]	significantly reversed	transiently reversed	
NCCS(=O)(=O)O [taurine]	significantly reversed	transiently reversed	
TAFA4: recombinant human TAFA4 (R&D Systems), a chemokine-like protein	significantly reversed	transiently reversed	
